Where “and” joins values, the source holds several entries; their conditions need not be identical. Equal values may be shown once.

The target in one assay is T1, Aurora kinase A (Homo sapiens, UniProt O14965).
T1 sequence (O14965 whole entry): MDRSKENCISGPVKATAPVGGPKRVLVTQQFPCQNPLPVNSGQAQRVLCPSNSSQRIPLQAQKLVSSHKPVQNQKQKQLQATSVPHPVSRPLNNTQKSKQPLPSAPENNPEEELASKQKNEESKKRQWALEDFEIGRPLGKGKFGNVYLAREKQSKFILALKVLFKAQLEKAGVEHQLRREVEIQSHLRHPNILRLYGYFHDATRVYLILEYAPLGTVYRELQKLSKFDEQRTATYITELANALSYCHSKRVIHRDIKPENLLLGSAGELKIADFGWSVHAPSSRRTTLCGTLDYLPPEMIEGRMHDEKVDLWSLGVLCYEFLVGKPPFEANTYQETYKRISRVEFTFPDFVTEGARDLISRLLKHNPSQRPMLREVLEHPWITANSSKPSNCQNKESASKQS
Nature of the assay: Aurora A Kinase Biochemical Assay. How it is done:
(§1) Activity of human recombinant Aurora A (ThermoFisher, cat #PR5935A) was measured by quantification of adenosine diphosphate (ADP) using the ADP-Glo Kinase Assay Kit (Promega, cat #V9102). […] 5 µL of 5.0 nM Aurora A in assay buffer (50 mM HEPES, pH 7.5, 0.01% Brij-35, 0.01% BSA, 10 mM MgCl2, 1 mM EGTA, 1 mM DTT) was added to the plates. Test compounds and Aurora A were incubated for 15 minutes at room temperature (RT). […] Reactions were stopped and the remaining ATP depleted by adding 10uL of ADP-Glo reagent (Promega, cat#V912B) and incubating for 40 minutes at RT. The simultaneous conversion of the remaining ADP to ATP and measurement of the newly synthesized ATP was achieved by addition of 20 µL Kinase Detection reagent (Promega, cat #V914B), incubation for 30 min at RT, and luminescence detection using the EnVision plate reader (PerkinElmer). […] The IC50 values reported in Table 2 were determined using four parameter non-linear regression curve fit.

A further assay has as its target Aurora kinase B (Homo sapiens, UniProt Q96GD4). Nature of the assay: Aurora B Kinase Biochemical Assay. How it is done: as §1, with “Aurora B” for “Aurora A”, “cat #PR9210B)” for “cat #PR5935A)”, “of 20” for “of 5.0”, “parameter” for “parameter non-linear regression curve fit.”
For assay [1], the target named is T2, Serine/threonine-protein kinase PLK4 (Homo sapiens, UniProt O00444).
T2 sequence (O00444 whole entry): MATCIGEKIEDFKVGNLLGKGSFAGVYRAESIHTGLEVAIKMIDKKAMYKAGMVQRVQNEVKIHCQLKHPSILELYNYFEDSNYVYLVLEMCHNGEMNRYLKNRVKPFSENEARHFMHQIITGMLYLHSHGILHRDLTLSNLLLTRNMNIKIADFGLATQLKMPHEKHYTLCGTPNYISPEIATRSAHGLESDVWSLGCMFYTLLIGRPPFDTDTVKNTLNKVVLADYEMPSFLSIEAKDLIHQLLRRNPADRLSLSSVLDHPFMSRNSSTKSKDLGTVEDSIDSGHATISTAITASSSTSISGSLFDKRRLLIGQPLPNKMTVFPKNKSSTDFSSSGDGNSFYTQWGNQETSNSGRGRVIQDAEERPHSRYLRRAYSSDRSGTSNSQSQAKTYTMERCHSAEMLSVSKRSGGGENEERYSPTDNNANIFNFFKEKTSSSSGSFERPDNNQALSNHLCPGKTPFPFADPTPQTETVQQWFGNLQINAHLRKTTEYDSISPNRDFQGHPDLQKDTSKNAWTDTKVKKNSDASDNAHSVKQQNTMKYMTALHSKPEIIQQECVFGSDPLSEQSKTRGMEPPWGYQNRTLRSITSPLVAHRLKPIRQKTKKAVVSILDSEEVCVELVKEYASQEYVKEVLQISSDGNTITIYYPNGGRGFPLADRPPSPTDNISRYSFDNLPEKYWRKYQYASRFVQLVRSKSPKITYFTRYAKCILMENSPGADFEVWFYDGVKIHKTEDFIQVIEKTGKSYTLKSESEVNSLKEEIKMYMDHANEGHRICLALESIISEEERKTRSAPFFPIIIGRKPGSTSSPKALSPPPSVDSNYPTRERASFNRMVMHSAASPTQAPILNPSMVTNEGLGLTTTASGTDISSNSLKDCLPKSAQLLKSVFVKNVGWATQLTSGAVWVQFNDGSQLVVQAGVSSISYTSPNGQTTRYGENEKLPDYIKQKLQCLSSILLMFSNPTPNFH
Kind of assay: PLK4 Biochemical Assay. The procedure: as §1, with “recombinant PLK4” for “recombinant Aurora A”, “cat #PV6396)” for “cat #PR5935A)”, “of 1.0” for “of 5.0”, “nM PLK4 protein” for “nM Aurora A”, “and PLK4” for “and Aurora A”, “adding 10 µL” for “adding 10uL”

Aurora kinase B, sequence (Q96GD4 whole entry): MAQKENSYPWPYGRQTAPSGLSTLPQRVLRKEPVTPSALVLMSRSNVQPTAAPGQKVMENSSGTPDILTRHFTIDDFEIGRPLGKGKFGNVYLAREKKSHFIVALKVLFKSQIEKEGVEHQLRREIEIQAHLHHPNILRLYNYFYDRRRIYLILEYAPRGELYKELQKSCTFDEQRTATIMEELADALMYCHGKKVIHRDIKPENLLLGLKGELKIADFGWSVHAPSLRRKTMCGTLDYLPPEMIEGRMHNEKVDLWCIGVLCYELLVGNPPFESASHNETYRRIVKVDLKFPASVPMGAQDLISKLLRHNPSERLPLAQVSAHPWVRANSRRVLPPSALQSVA

Usually IC50 stands for the midpoint of a concentration-inhibition curve. A lower IC50 goes with greater potency. As for `COc1ccc2c(c1)[C@]1(C[C@H]1c1ccc3c(Nc4ccc(S(C)(=O)=O)nc4OC)n[nH]c3c1)C(=O)N2` [US20230365537, Example 168], the IC50 against Aurora kinase A was 1860 nM and 2030 nM; against Aurora kinase B it was 521 nM and 1060 nM.
Compound `COc1ccc2c(c1)[C@]1(C[C@H]1c1ccc3c(Nc4cc(N5CCN(C)C5=O)cnc4OC)n[nH]c3c1)C(=O)N2` [US20230365537, Example 221] had a half-inhibitory concentration (IC50) in assay [1] of 2.8 nM.
Same read-out and setting: with `COc1ccc2c(c1)[C@]1(C[C@H]1c1ccc3c(Nc4cc(S(=O)(=O)C5CCOCC5)ccc4OC)n[nH]c3c1)C(=O)N2` [US20230365537, Example 224] the figure was 4.02 nM.

Values taken from BindingDB's records for patent US20230365537 (Oric Pharmaceuticals, 2023).
